Each structure is given as a SMILES string. “And” between values parts separate entries of the source, which are not always exact repeats. Equal entries are not always repeated.

In this assay the target is T1, Casp6-L200A-LS-SS (Homo sapiens, UniProt P55212, L200A).
T1 construct: obtained by co-expression and purification of LS and SS subunits of WT, L200A or K284A Casp6 from E. coli; His (C); made in house; host or cells: E. coli BL21(DE3)pLysS
T1 sequence (P55212 24-179 limits assumed): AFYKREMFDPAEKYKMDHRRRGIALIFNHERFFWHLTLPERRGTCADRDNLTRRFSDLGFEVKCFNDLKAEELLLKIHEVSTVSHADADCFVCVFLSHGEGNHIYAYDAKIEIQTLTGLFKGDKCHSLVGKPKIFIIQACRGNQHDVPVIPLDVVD
T1 sequence (P55212 194-293 L200A limits assumed): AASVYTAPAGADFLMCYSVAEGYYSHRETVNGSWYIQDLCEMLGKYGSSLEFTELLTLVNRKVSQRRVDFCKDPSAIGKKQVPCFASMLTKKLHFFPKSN
Description: C13 dose-response and global-fit kinetics on Casp6-L200A-LS-SS. Type of assay: biochemical. From the text: Figure 4 Compounds S10G and C13 inhibit Casp6 through a noncompetitive mode of inhibition. (a) Michaelis-Menten kinetic plots of Casp6 enzymatic activity in presence of 1% DMSO or increasing doses S10G (top) and C13 (bottom). Data points represent mean ± SD of three independent experiments. (b) Lineweaver-Burk plots of Casp6 inhibition with S10G (top) and C13 (bottom). Red circle indicates the point where lines converge. (c) The relationship between the slopes of lines in Lineweaver-Burk plot analyses in panel (b) and inhibitor concentration. (d) Plots of IC50 values for S10G (top) and C13 (bottom) with varying concentrations of Ac-VEID-AFC substrate. Data points represent mean ± SD from three independent experiments for each substrate concentration. (e) Binding model of C13 into CASP6 putative allosteric site, derived from molecular docking. Left: C13 (green sticks) occupies the putative allosteric site (white surface and lines; Ala-mutated residues L200 and K284 shown as purple sticks). Right: predicted interactions with Casp6 allosteric pocket residues (pink balls polar, circled blue or red for basic and acidic, respectively. Green balls = hydrophobic. Dotted-arrow: blue and green for backbone and sidechain hydrogen-bond interactions, respectively. Blue shade = solvent exposed area). Dose-response curves of C13 for Casp6-WT and Casp6-K284A (f), and copurified LS and SS of Casp6-WT-LS-SS, Casp6-L200A-LS-SS, and Casp6-K284A-LS-SS (g). Data represent mean ± SD from at least three independent experiments. (h) Global fit of kinetics data to a noncompetitive (mixed) inhibition model for Casp6-WT-LS-SS (left panel, R^2 = 0.9635), Casp6-L200A-LS-SS (middle panel, R^2 = 0.9699), and Casp6-K284A-LS-SS (right panel, R^2 = 0.9794) in the presence of 0–50 µM C13. Data points on the graph represent the mean ± SD, and calculated Ki values represent mean ± standard error (SE) from three independent experiments.
To determine the importance of C13 interactions with L200 and K284 for C13 binding in the Casp6 allosteric pocket, we have generated Casp6-L200A and Casp6-K284A mutants and investigated inhibition with C13. […]
Compounds, S10G (2.5 µM, 4.2 µM, 10 µM), and C13 (5 µM, 14 µM, 50 µM), were added to 20 nM active site titrated Casp6 and enzyme activity was measured with eight different Ac-VEID-AFC substrate concentrations (5.0 μM–200 μM) using fluorescence-based Casp6 activity assay as above. The apparent KM and Vmax values were determined through nonlinear regression analysis of Michaelis-Menten plots (v vs. [S]) using GraphPad Prism 5. The inhibition mode was determined from the pattern of converging Lineweaver-Burk plots (1/v vs. 1/[S])[54]. […]

For the compound `COC(=O)c1cc(CNC(=O)C2Cc3ccccc3O2)cc(NC(=O)c2ccco2)c1` (stereo not shown) [Compound C13], the “fold lower IC50 for Casp6-L200A-LS-SS compared to Casp6-WT-LS-SS” value was 1.4 fold. Further, for the setting “Ac-VEID-AFC hydrolysis, increasing substrate and C13 concentrations”, the “inhibition model (best global fit), Casp6-L200A-LS-SS” value was “noncompetitive (mixed) model inhibition”. Also, for the setting “copurified LS and SS, read-out: IC50 of C13 for Casp6-L200A-LS-SS (Fig. 4g)”, the IC50 stood at 23.4 ± 4.5 µM. For the same compound, for the setting “global fit to noncompetitive (mixed) model, 0–50 µM C13, mean ± SE”, the Ki is 6.82 µM and 6.8 µM.

(Values after publication PMC6445123 (Scientific Reports, 2019).)
